Patent publication US20100227840A1, “USE OF 25-HYDROXY VITAMIN D3 TO IMPROVE MALE ANIMAL FERTILITY” (priority 2005, published 2010)

Assays:
[1] = system: boars; experiment: administration of 25-hydroxy vitamin D3 to boars: quality of semen; type: in vivo, pig; settings: administered to boars
[2] = system: pigs; experiment: conception rate of pigs fertilized by boars administered 25-hydroxy vitamin D3; type: in vivo, pig; settings: pigs fertilized by boars that were administered 25-hydroxy vitamin D3

C=C1CC[C@H](O)C/C1=C/C=C1\CCC[C@]2(C)[C@@H]([C@H](C)CCCC(C)(C)O)CC[C@@H]12 [25-hydroxy vitamin D3]
quality of boar semen [1]: improves the quality of boar semen | conception rate in pigs [2]: increases the conception rate in pigs
